Measured values published in patent publication US8772499B2, “TRPV3 modulators” (AbbVie Inc., priority 2011, dated 2014).
Where two headings read alike, the source gives them in different places.

Assays:
[1] = target: T1, human TRPV3 (Homo sapiens, UniProt Q8NET8); experiment: In vitro antagonism of recombinant human TRPV3 activation (FLIPR Tetra calcium assay); format: cell-based; settings: HEK293 cells stably expressing human TRPV3, agonist 2-APB at 80 μM
T1 construct: expressed in transfected cells
T1 sequence (Q8NET8 1-790): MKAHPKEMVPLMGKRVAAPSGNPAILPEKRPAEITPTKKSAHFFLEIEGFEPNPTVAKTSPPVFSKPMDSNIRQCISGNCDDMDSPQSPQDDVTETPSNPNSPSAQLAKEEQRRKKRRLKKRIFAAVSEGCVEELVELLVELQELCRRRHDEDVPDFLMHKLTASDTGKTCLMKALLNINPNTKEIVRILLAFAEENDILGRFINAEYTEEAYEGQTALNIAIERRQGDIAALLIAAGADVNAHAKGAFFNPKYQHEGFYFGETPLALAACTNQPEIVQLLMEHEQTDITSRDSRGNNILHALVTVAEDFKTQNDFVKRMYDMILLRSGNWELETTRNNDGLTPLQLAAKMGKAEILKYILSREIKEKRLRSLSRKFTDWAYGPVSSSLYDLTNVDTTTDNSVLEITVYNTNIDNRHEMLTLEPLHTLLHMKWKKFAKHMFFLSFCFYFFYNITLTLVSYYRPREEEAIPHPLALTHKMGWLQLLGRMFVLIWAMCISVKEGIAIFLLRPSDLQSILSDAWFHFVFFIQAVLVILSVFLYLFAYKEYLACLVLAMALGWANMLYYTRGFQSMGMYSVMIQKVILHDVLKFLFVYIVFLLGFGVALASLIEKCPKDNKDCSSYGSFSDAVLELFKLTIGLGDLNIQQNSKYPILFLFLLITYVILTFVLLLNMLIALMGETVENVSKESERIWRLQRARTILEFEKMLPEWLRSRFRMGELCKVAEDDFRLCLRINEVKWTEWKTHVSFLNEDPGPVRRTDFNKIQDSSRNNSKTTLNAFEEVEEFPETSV
Outline: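 Calcium flux read over a 10 min run: compound added at 10 s to Calcium-4-loaded human TRPV3-HEK293 cells, agonist 2-APB (80 μM, its EC80) after 3 min. IC50 derived from peak-minus-baseline signal as percentage of uninhibited 2-APB response, typically averaged over at least two runs.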

[2] = In vitro human microsomal stability assay; format: in vitro ADME; settings: human, microsomes, 0.5 h, 0.5 μM, pH 7.4
Outline: (§1)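 Sprague-Dawley rat or human liver microsomes; 37° C.; NADPH cofactor, also spiked into time-zero samples.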

[3] = In vitro rat microsomal stability assay; format: in vitro ADME, rat (Sprague-Dawley); settings: Sprague-Dawley, rat, microsomes, 0.5 h, 0.5 μM, pH 7.4
Outline: as §1

[4] = actual measured value shown parenthetically, in most cases average of at least two runs, read-out: IC50

SMILES	IC50 [1, 4]	IC50 ([1]; reported range, read-out: IC50 (range class))	HUMAN MICROSOMAL STABILITY (% REMAINING AFTER 30 MINUTES) [2]	RAT MICROSOMAL STABILITY (% REMAINING AFTER 30 MINUTES) [3]
OC1CC(c2ccc(Cl)c(Cl)c2)(C(O)c2ncccn2)C1 (single isomer, unassigned) [Example 313]	> 20000 nM	> 20000 nM	81%	>85%
OC(c1ccccn1)C1(c2ccccc2F)CCC1 (stereo not shown) [Example 1, [1-(2-fluorophenyl)cyclobutyl](pyridin-2-yl)methanol]	1500 nM	–	0.38%	0.48%
OC(c1ccccn1)C1(c2cccc(F)c2)CCC1 (stereo not shown) [Example 2, [1-(3-fluorophenyl)cyclobutyl](pyridin-2-yl)methanol]	320 nM	–	17%	0.64%
OC(c1ccccn1)C1(c2ccc(F)cc2)CCC1 (stereo not shown) [Example 3, [1-(4-fluorophenyl)cyclobutyl](pyridin-2-yl)methanol]	790 nM	–	28%	3.8%
OC(c1ccccn1)C1(c2ccc(F)c(F)c2)CCC1 (stereo not shown) [Example 4, [1-(3,4-difluorophenyl)cyclobutyl](pyridin-2-yl)methanol]	460 nM	–	19%	4.2%
OC(c1ccccn1)C1(c2ccccc2C(F)(F)F)CCC1 (stereo not shown) [Example 5, pyridin-2-yl{1-[2-(trifluoromethyl)phenyl]cyclobutyl}methanol]	5220 nM	–	0.27%	0.06%
OC(c1ccccn1)C1(c2cccc(C(F)(F)F)c2)CCC1 (stereo not shown) [Example 6, pyridin-2-yl{1-[3-(trifluoromethyl)phenyl]cyclobutyl}methanol]	350 nM	–	1.2%	2.3%
Cc1ccccc1C1(C(O)c2ccccn2)CCC1 (stereo not shown) [Example 7, [1-(2-methylphenyl)cyclobutyl](pyridin-2-yl)methanol]	17500 nM	–	0.15%	0.32%
Cc1cccc(C2(C(O)c3ccccn3)CCC2)c1 (stereo not shown) [Example 8, [1-(3-methylphenyl)cyclobutyl](pyridin-2-yl)methanol]	380 nM	–	0.13%	0.73%
Cc1ccc(C2(C(O)c3ccccn3)CCC2)cc1 (stereo not shown) [Example 9, [1-(4-methylphenyl)cyclobutyl](pyridin-2-yl)methanol]	1510 nM	–	0.12%	0.18%
OC(c1ccccn1)C1(c2ccccc2OC(F)(F)F)CCC1 (stereo not shown) [Example 10, pyridin-2-yl{1-[2-(trifluoromethoxy)phenyl]cyclobutyl}methanol]	1100 nM	–	0.42%	0.62%
OC(c1ccccn1)C1(c2cccc(OC(F)(F)F)c2)CCC1 (stereo not shown) [Example 11, pyridin-2-yl{1-[3-(trifluoromethoxy)phenyl]cyclobutyl}methanol]	400 nM	–	0.72%	0.80%
OC(c1ccccn1)C1(c2ccc(OC(F)(F)F)cc2)CCC1 (stereo not shown) [Example 12, pyridin-2-yl{1-[4-(trifluoromethoxy)phenyl]cyclobutyl}methanol]	420 nM	–	24%	11%
OC(c1ccccn1)C1(c2cc(C(F)(F)F)cc(C(F)(F)F)c2)CCC1 (stereo not shown) [Example 13, {1-[3,5-bis(trifluoromethyl)phenyl]cyclobutyl}(pyridin-2-yl)methanol]	600 nM	–	7.4%	19%
